According to US9493506B2 (Enanta Pharmaceuticals, Inc., priority 2010, dated 2016):

Assays:
[1] = test system: HCV replicon with a D168E mutation in a 1a-H77 background; assay: transient replicon assay, D168E mutation in 1a-H77 background; type: cell-based, hepatitis C virus (genotype 1a-H77); settings: Hepatitis C virus, read-out: EC50 in a transient replicon assay with a D168E mutation in a 1a-H77 background
Outline: (§1)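 Transient transfection of mutant replicon RNA (1a-H77 with NS2–NS5B, or 1b-N with NS3–NS5B plus E1202G/S2204I) by electroporation into IFN-cured Huh7 cells, plated at 7.5×10^3 cells per well in DMEM with 5% FBS. Serial compound dilutions added 4 h post-transfection (0.5% DMSO final).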

[2] = dog PK experiment; settings: in vivo
Excerpt: Those of ordinary skill in the art are aware of the biological assays utililized to test the compounds of the invention. Regarding bioavailability data (F values), a more thorough explanation can be found in Rowland, M and Tozer, T Clinical Pharmacokinetics: Concepts and Applications Lippincott, Williams & Wilkins 3rd ed. 1995, (specifically covered on page 43).

[3] = test system: HCV replicon with a R155K mutation in a 1a-H77 background; assay: transient replicon assay, R155K mutation in 1a-H77 background; type: cell-based, hepatitis C virus (genotype 1a-H77); settings: Hepatitis C virus, read-out: EC50 in a transient replicon assay with a R155K mutation in a 1a-H77 background
Outline: as §1

[4] = test system: HCV replicon with a D168V mutation in a 1a-H77 background; assay: transient replicon assay, D168V mutation in 1a-H77 background; type: cell-based, hepatitis C virus (genotype 1a-H77); settings: Hepatitis C virus, read-out: EC50 in a transient replicon assay with a D168V mutation in a 1a-H77 background
Outline: as §1

[5] = test system: HCV replicon with a R155K mutation in a 1b-N background; assay: transient replicon assay, R155K mutation in 1b-N background; type: cell-based, hepatitis C virus (genotype 1b-N); settings: Hepatitis C virus, read-out: EC50 in a transient replicon assay with a R155K mutation in a 1b-N background
Method: Replicon cell lines can be maintained in Dulbecco's modified Eagles medium (DMEM) containing 100 IU/ml penicillin, […] streptomycin (Invitrogen), […] G418 (Invitrogen) and 10% (v/v) fetal bovine serum (FBS). Replicon-containing cells can be seeded into 96 well plates at a density of 5000 cells per well in 100 μl DMEM containing 5% FBS. The next day, the compound can be initially diluted in dimethyl sulfoxide (DMSO) to generate a 200× stock of the inhibitor in a series of 8 half-log dilutions. The dilution series can then be diluted 100-fold in the medium containing 5% FBS. […] The inhibitory effects of compounds against the replicons can be determined by measuring either the level of luciferase or HCV RNA. […] Luciferin solution (50 μl, Promega) is added, and luciferase activity is measured with a Victor II luminometer (Perkin-Elmer). To determine HCV RNA levels, RNA extractions can be performed using the CellsDirect kit (Invitrogen), and the HCV RNA copy number can be measured using the SuperScript III Platinum One-Step qRT-PCR system (Invitrogen) and primers specific to the HCV 5′ nontranslated region. Cytotoxicity can be determined by the 3-[4,5-dimethylhiazol-2-yl]-2,5-diphenyltetrazolium bromide (MTT) colorimetric assay as follows. […] The plates are incubated overnight and the optical density can be measured at 570 nm. […]

SMILES	EC50 [1]	bioavailability ([2]; dog PK experiment, 3 mg/kg, read-out: F value (bioavailability))	AUC ([2]; dog, dosed at 3 mg/kg)	EC50 [3]	EC50 [4]	EC50 [5]
Cc1cc(C(=O)N[C@H]2CCCCC/C=C\[C@@H]3C[C@@]3(C(=O)NS(=O)(=O)C3(C)CC3)NC(=O)[C@@H]3C[C@@H](Oc4nc5cc(F)ccc5nc4C(C)(F)F)CN3C2=O)no1 [Example 119, N-((2R,6S,13aS,14aR,16aS,Z)-2-(3-(1,1-difluoroethyl)-7-fluoroquinoxalin-2-yloxy)-14a-(1-methylcyclopropylsulfonylcarbamoyl)-5,16-dioxo-1,2,3,5,6,7,8,9,10,11,13a,14,14a,15,16,16a-hexadecahydrocyclopropa[e]pyrrolo[1,2-a][1,4]diazacyclopentadecin-6-yl)-5-methylisoxazole-3-carboxamide]	< 3 nM	64%	30000 ng·h/mL	< 1 nM	< 25 nM	
CCc1nc2cccc(F)c2nc1O[C@@H]1C[C@H]2C(=O)N[C@]3(C(=O)NS(=O)(=O)C4(C)CC4)C[C@H]3/C=C\CCCCC[C@H](NC(=O)OC(C)(C)C)C(=O)N2C1 [Example 164, tert-butyl (2R,6S,13aS,14aR,16aS,Z)-2-(3-ethyl-8-fluoroquinoxalin-2-yloxy)-14a-(1-methylcyclopropylsulfonylcarbamoyl)-5,16-dioxo-1,2,3,5,6,7,8,9,10,11,13a,14,14a,15,16,16a-hexadecahydrocyclopropa[e]pyrrolo[1,2-a][1,4]diazacyclopentadecin-6-ylcarbamate]	20 to 50 nM				50 to 250 nM	1 to 10 nM
